1 substance from patent publication US20070077583A1, “Alpha enolase-directed diagnostics and therapeutics for cancer and chemotherapeutic drug resistance” (Aurelium BioPharma, Inc., priority 2005, published 2007) can be followed below.

The subject of series [1] is MDA-435 cells. Put plainly: Annexin-V FITC staining, MDA-435. The class given is cell-based, human. Here is the method:
The effect of Eno-1 siRNA silencing on tumor cell growth was even more dramatic in the MDA-435 breast cancer cells, where the viability in cells that were transfected with Eno-1 siRNA dropped to only about 17% of the control level (FIG. 40). In these cells the levels of silencing of α-enolase were also quite high, reaching 14% of the α-enolase levels present in the control transfected cells 6 days post-transfection (FIG. 41).
Apoptotic cells were measured following incubation with siRNAs. This assay was performed to determine the number of cells that were now susceptible to chemotherapeutic drugs. Cells transfected with siRNA were seeded in Lab-Tek 16-well chamber slides (Electron Microscopy Sciences, Hatfield, Pa.) at 10^4 cells/well 48 hrs post-transfection. Apoptosis was determined 16 hours later by annexin-V staining using the Annexin-V FLUOS kit (Roche, Ltd., Basel, CH) following the manufacturer's instructions. Slides were observed under a fluorescence microscope and images were taken using an Olympus digital camera and the Q-Capture software (QImaging, Burnaby, BC, CA).

Series [2] relates to α-enolase. Nature of the series: Western blot of α-enolase protein expression after siRNA transfection. The class given is cell-based, human. The settings on record: for reduction of α-enolase expression: A549 cells; for decrease of levels of expression of α-enolase: MDA-MB-435 cells. On the procedure:
Western blot analysis utilizing anti-α-enolase antibodies was performed on MOLT4 cell extracts fractionated on SDS-PAGE (FIG. 3). Cells extract were prepared according to the protocol detailed in Example 1. […] Resolved proteins were electrophoretically transferred onto nitrocellulose membranes (Hybond, Amercham Pharmacia Biotech) for 1 hour. […] After blocking the membranes with 5% non-fat milk in 1×PBS overnight at 4° C., all antibody-binding reactions were performed in 5% non-fat milk in 1×PBS for 2 hours at room temperature for primary antibodies and for 1 hour for secondary antibodies coupled to HRP. The signal was detected by the Supersignal west Pico chemiluminescent substrate (Pierce, Rockford, Ill., USA). Two polyclonal antibodies against α-enolase were used: a goat antibody against human α-enolase (Santa Cruz Biotechology, Inc., Santa Cruz, Calif.); rabbit polyclonal antibody against human α-enolase (NNE) (MorphoSys AG, Munich, Del.). Membranes were subsequently blotted with anti-GAPDH (Novus Biologicals, Inc., Littleton, Colo.) or anti-prohibitin mouse monoclonal antibody (Lab Vision Corp., Fremont, Calif.) as controls for protein loading. To establish the importance of α-enolase to the expression of the drug-resistant phenotype in cell lines, α-enolase expression was silenced using RNAi. Briefly, the following siRNA duplexes targeting the human α-enolase mRNA were designed and purchased either from Ambion (Austin, Tex.) or Invitrogen (Carlsbad, Calif.). […] [NT] ID NO: 2) targeting the mRNA sequence corresponding to nucleotides […] from the start of the transcript (Ref Seq ID number: NM-001428). […] In another tube, […] of Oligofectamine reagent (Invitrogen, Carlsbad, Calif.) is mixed with […] of Opti-MEM. The two solutions are combined and mixed gently by inversion and incubated for 20 min. at RT. […] The next day the transfected cells were trypsinized and seeded in 6 or 96-well plates and further incubated for the indicated amount of time (assay dependent) before further analysis.
In general terms: A western blot detects proteins with antibodies after separation by electrophoresis.

For series [3], the system named is HUVEC cells. Nature of the series: HUVEC capillary tube formation on Matrigel. Type of series: cell-based. On the procedure:
Transfected cells were then subjected to an angiogenesis assay to determine the effect of α-enolase on capillary tube formation. Briefly, Matrigel-coated 24-well culture plates (BD Biosciences, Rockville, Md.) were thawed at 4° C. overnight. The Matrigel was allowed to solidify for 1 hr at 37° C. α-enolase-1-directed siRNA or control siRNA silenced HUVEC cells were subsequently seeded onto the Matrigel-coated wells at a density of 40,000 cells per well in the absence of endothelial cell growth factors. Taxol was added to selected wells at 2 nM final concentration. The cells were allowed to differentiate overnight at 37° C., and were photographed after 5-6 and 16 hours using Q-Capture software under an Olympus fluorescence microscope.

Take “α-enolase siRNA: siRNA duplex targeting human α-enolase mRNA; sense 5′-GGCUGUUGAGCACAUCAAUtt-3′ (SEQ ID NO: 1), antisense SEQ ID NO: 2; Ambion (antisense AUUGAUGUGCUCAACAGCC; bought from Ambion, sense has tt overhang, further chemistry not given here)”: in series [1], the “apoptosis by annexin-V FITC staining” value was “increase in apoptosis”. Also, the entries for the “reduction of α-enolase expression” value in series [2] (six days post-transfection) and in series [2] (three days post-transfection) were 90% and 77%, respectively. Besides, the “α-enolase expression” value in series [2] (Detroit fibroblast cells, three days of treatment) was “significant down-regulation”. Besides, the “α-enolase level relative to control transfected cells” value in series [2] (MDA-435 cells, 6 days post-transfection) worked out at 14%. Also, the entries for the “decrease of levels of expression of α-enolase” value in series [2] (six days) and in series [2] (three days) were 92% and 67%, respectively. Moreover, the “decrease of α-enolase protein expression” value in series [2] (variety of cell lines) is 50-80%. Besides, in series [3], the “capillary tube formation on Matrigel” value was “inhibited from forming capillary tubes”.
